Where a chain is given by its changes, count along the chain named. pKi: −log10 of the molar value.
Experiments:
OX2R [1] = molecular target: T1, OX2R (Rattus norvegicus, UniProt P56719); experiment: Inhibition of orexin-peptide-A-induced calcium mobilization in CHO cells, rat OX2R; assay type: cell-based; conditions: for fold OX2R selectivity (Kb): OX1R Kb / OX2R Kb
T1 construct: expressed in transfected cells; host or cells: CHO-K1
T1 sequence (P56719 1-460): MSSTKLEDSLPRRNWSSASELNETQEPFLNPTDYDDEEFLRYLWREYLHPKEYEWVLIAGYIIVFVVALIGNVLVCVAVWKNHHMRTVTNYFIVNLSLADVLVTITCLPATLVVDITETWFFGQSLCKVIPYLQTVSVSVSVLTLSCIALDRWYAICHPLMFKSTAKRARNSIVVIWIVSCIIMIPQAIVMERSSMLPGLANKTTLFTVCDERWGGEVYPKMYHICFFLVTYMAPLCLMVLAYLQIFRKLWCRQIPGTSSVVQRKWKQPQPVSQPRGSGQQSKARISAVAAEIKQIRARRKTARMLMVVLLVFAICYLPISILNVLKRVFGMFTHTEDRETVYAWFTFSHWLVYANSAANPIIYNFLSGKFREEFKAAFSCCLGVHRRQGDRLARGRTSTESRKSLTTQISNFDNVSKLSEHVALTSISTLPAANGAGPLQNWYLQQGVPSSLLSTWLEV
Experimental: (§1) MK-1064 was evaluated for its ability to inhibit orexin-peptide-A-induced calcium mobilization in CHO cell lines separately expressing OX1R and OX2R from mice, rats, rabbits, dogs, rhesus monkeys and humans.
(§2) Binding and functional blockade of OX1R and OX2R with MK-1064 relative to other 2-SORAs and the DORA, MK-6096, were assessed using membranes from Chinese hamster ovary (CHO)-K1 cells (American Type Tissue Collection, Manassas, VA) transfected to express human, mouse, rat, rabbit, dog, or rhesus monkey OX1R or OX2R receptors, as described previously. The kinetics of binding to human OX2R was assessed by radioligand displacement on CHO-K1 cells expressing the receptor. […] The ON rate analysis was performed by presoaking GF/B filters in 0.3% polyethyleneimine (Sigma) using a Skatron 12-well cell harvester and cold buffer at the indicated time points after addition. For OFF rate determination, binding reactions were allowed to proceed to equilibrium and terminated with 1000x [Kd] of unlabeled antagonist and filtered as above at pre-determined time points. Ultima Gold^TM (PerkinElmer 6013327) scintillation cocktail was added to each filter disc and counted on a PerkinElmer TriCarb 2910 scintillation counter. Data were analyzed using GraphPad® Prism v 6.04 (San Diego, CA, USA). The KON rate was determined according to the equation, KON = (KOBS − KOFF)/[ligand].

OX1R [2] = molecular target: T2, OX1R (Canis lupus familiaris, UniProt A0A8I3RSX8); experiment: Inhibition of orexin-peptide-A-induced calcium mobilization in CHO cells, dog OX1R; assay type: cell-based
T2 sequence (A0A8I3RSX8 1-427): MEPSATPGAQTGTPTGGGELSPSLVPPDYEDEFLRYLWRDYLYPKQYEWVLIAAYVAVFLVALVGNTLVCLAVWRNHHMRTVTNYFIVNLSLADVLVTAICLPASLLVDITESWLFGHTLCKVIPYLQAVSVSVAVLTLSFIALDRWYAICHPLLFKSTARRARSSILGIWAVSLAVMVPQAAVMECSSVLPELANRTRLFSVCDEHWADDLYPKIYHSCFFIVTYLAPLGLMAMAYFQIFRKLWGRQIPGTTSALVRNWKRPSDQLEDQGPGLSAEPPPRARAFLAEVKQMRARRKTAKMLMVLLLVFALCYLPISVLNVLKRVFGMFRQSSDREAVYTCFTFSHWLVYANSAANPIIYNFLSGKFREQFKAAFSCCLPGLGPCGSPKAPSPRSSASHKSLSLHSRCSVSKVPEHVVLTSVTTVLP
Experimental: as §1, §2

OX2R [3] = molecular target: T3, OX2R (Macaca mulatta, UniProt F7CZM2); experiment: Radio-ligand displacement binding, CHO-K1 membranes, rhesus OX2R; design: species or system rhesus monkey; conditions: for fold OX2R selectivity (Ki): OX1R Ki / OX2R Ki; for pKi: read-out: OX2R affinity (Ki)
T3 sequence (F7CZM2 1-444): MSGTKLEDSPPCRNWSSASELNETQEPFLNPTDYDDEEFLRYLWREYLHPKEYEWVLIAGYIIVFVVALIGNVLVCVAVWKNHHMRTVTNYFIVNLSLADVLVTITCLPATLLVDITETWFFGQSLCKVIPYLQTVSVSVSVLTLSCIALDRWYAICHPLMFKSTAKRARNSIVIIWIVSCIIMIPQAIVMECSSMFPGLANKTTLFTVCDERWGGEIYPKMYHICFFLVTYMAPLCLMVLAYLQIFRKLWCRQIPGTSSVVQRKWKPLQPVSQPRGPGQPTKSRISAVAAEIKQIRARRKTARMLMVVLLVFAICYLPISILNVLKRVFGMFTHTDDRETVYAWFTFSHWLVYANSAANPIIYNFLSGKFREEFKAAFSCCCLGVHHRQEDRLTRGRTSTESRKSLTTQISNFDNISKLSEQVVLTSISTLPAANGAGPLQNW
Experimental: as §1, §2

OX1R [4] = molecular target: T4, OX1R (Oryctolagus cuniculus, UniProt G1SPJ3); experiment: Radio-ligand displacement binding, CHO-K1 membranes, rabbit OX1R; conditions: read-out: OX1R affinity (Ki)
T4 sequence (G1SPJ3 1-416): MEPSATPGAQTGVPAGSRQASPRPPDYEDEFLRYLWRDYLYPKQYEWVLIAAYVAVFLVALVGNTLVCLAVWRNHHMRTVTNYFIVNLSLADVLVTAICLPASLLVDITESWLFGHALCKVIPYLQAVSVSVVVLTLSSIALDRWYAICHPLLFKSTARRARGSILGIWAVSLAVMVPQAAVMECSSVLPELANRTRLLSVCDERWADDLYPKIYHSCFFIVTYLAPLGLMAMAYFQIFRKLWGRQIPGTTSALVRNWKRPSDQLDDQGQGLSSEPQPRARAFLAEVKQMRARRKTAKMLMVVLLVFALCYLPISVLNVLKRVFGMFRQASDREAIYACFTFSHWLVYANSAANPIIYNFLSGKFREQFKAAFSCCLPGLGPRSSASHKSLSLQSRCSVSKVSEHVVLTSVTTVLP
Experimental: as §1, §2

OX2R [5] = molecular target: T5, OX2R (Homo sapiens, UniProt O43614); experiment: Radio-ligand displacement binding, CHO-K1 membranes, human OX2R; design: expressed in transfected cells; host or cells: CHO-K1; conditions: for fold OX2R selectivity (Ki): OX1R Ki / OX2R Ki; for pKi: read-out: OX2R affinity (Ki)
T5 sequence (O43614 1-444): T3 sequence (F7CZM2 1-444) with L113V, S195T, M196V, I286M, V308I, T334A, D337E
Experimental: as §1, §2

Row | Structure (SMILES) | Kb (OX2R [1]) [nM] | fold OX2R selectivity (Kb) (OX2R [1]) | Kb (OX1R [2]) [nM] | fold OX2R selectivity (Ki) (OX2R [3]) | pKi (OX2R [3]) | pKi (OX1R [4]) | fold OX2R selectivity (Ki) (OX2R [5]) | pKi (OX2R [5])
1 | COc1ccc(CNC(=O)c2cc(-c3cncc(C)c3)ncc2-c2ccccc2)nc1OC [2-SORA-7] | 18 | [3238] fold | > 10000 | [1994] fold | 9.17 | 5.36 | [5957] fold | 9.33
2 | COc1ccc(CNC(=O)c2cc(-c3cc(Cl)cc(Cl)c3)cnc2-c2cccnc2)cc1OC [2-SORA-18] | 21 | [50] fold | 87 | [1200] fold | 9.96 | 6.62 | [1000] fold | 10.00
3 | COc1ccc(CNC(=O)c2cc(-c3cncc(Cl)c3)cnc2-c2ccccn2)nc1OC [MK-1064, 5″-chloro-N-[(5,6-dimethoxypyridin-2-yl)methyl]-2,2′:5′, 3″-terpyridine-3′-carbo xamide] | 13 | [613] fold | 3700 | [1315] fold | 9.21 | 5.61 | [2885] fold | 9.28
4 | COc1ccc(CNC(=O)c2cc(-c3cncc(C)c3)ncc2-c2nccs2)nc1OC [MK-3697] | 31 | – | > 10000 | – | 8.94 | 5.32 | – | 9.01
5 | Cc1ccc(-c2ncccn2)c(C(=O)N2C[C@H](COc3ccc(F)cn3)CC[C@H]2C)c1 [MK-6096] | 22 | [0.5] fold | 10 | [28.4] fold | 9.36 | 8.59 | [8.1] fold | 9.51

From paper PMC4891657, “Orexin 2 Receptor Antagonism is Sufficient to Promote NREM and REM Sleep from Mouse to Man” (Scientific Reports, 2016)
